Two compounds from PMC9179341, “Design of New Potent and Selective Thiophene-Based KV1.3 Inhibitors and Their Potential for Anticancer Activity” (Cancers, 2022) can be followed below.

Common to all, as to format: cell-based
Experiment [1] concerns the target KV4.2 (Homo sapiens, UniProt Q9NZV8). Description: Selectivity, HiClamp Xenopus laevis heterologous expression system, KV4.2. Conditions: oocytes, NA = no significant inhibition, no IC50 determined. The procedure: (§1) Ion channels (Kv1.x, Kv2.1, Kv4.2, Kv10.1) were expressed in Xenopus laevis oocytes by linearization of the plasmids and subsequent in vitro transcription using a commercial T7 or SP6 mMESSAGE mMACHINE transcription kit (Ambion, Carlsbad, California, USA). Defolliculated Xenopus oocytes were then injected with 20–50 nL of the cRNA at a concentration of 1 ng/nL using a micro-injector (Drummond Scientific1, Broomall, PA, USA). The oocytes were incubated in a solution containing (in mM): NaCl, 96; KCl, 2; CaCl2, 1.8; MgCl2, 2 and HEPES, 5 (pH 7.5), supplemented with 50 mg/L gentamycin sulfate and 90 mg/L theophylline. […]
(§2) Two-electrode voltage-clamp recordings were performed at room temperature (18–22 °C) using a Geneclamp 500 amplifier (Molecular Devices, San Jose, CA, USA) and pClamp data acquisition (Axon Instruments, Union City, CA, USA) and using an integrated digital TEVC amplifier controlled by HiClamp, an automated Voltage-Clamp Screening System (Multi Channel Systems MCS GmbH, Reutlingen, Germany). Whole-cell currents from oocytes were recorded 1–4 days after injection. […]
(§3) For the electrophysiological analysis of the compounds, a number of protocols were applied from a holding potential of −90 mV. […] The concentration dependency of all compounds was assessed by measuring the current inhibition in the presence of increasing compound concentrations. […]

The target of experiment [2] is T1, KV2.1 (Homo sapiens, UniProt Q14721).
T1 sequence (Q14721 1-858): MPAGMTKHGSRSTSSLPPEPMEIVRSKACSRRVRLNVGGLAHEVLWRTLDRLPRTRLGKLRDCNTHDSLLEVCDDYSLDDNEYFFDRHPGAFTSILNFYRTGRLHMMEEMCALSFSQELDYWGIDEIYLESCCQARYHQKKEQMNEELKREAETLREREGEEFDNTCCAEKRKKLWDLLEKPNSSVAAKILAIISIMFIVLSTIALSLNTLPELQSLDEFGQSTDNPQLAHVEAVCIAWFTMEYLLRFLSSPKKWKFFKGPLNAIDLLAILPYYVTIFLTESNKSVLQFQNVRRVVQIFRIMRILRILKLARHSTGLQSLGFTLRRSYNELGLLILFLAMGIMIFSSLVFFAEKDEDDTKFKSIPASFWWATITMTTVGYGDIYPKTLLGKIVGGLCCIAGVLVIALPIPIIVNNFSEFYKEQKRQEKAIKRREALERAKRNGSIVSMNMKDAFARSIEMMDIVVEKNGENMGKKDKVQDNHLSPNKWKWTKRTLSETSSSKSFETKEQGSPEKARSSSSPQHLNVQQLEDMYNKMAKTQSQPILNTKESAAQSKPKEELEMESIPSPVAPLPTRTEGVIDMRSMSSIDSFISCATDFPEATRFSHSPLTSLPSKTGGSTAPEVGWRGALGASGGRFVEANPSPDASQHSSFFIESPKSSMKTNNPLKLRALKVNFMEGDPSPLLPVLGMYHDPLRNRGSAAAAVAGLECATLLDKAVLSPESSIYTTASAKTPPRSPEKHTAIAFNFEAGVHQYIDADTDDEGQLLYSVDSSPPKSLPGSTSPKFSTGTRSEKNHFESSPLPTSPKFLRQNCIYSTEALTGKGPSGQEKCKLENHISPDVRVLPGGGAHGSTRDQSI
Description: Selectivity, HiClamp Xenopus laevis heterologous expression system, KV2.1. The procedure:
(§4) Ion channels (Kv1.x, Kv2.1, Kv4.2, Kv10.1) were expressed in Xenopus laevis oocytes by linearization of the plasmids and subsequent in vitro transcription using a commercial T7 or SP6 mMESSAGE mMACHINE transcription kit (Ambion, Carlsbad, California, USA). Defolliculated Xenopus oocytes were then injected with 20–50 nL of the cRNA at a concentration of 1 ng/nL using a micro-injector (Drummond Scientific1, Broomall, PA, USA). The oocytes were incubated in a solution containing (in mM): NaCl, 96; KCl, 2; CaCl2, 1.8; MgCl2, 2 and HEPES, 5 (pH 7.5), supplemented with 50 mg/L gentamycin sulfate and 90 mg/L theophylline. After ex vivo translation, the ion channels were correctly inserted in the cell membrane of the oocytes.
as §2, with “injection. The bath solution composition was ND96 (in mM): NaCl, 96; KCl, 2; CaCl2, 1.8; MgCl2, 2 and HEPES, 5 (pH 7.5). Voltage and current electrodes were filled with a 3 M solution of KCl in H2O.” for “injection.”
as §3
(§5) All electrophysiological data (Figure S1) are presented as means ± S.E.M of n ≥ three independent experiments unless otherwise indicated. All data were analyzed using pClamp Clampfit 10.4 (Molecular Devices, Downingtown, PA, USA), OriginPro 9 (Originlab, Northampton, MA, USA), GraphPad Prism 8 software (GraphPad Software, Inc., San Diego, CA, USA) and DataMining (Multi Channel Systems MCS GmbH, Reutlingen, Germany). […]

Experiment [3] deals with KV1.4 (Homo sapiens, UniProt P22459). Briefly: Selectivity, HiClamp Xenopus laevis heterologous expression system, KV1.4. How it is done:
as §4
as §2, with “injection. The bath solution composition was ND96 (in mM): NaCl, 96; KCl, 2; CaCl2, 1.8; MgCl2, 2 and HEPES, 5 (pH 7.5). Voltage and current electrodes were filled with a 3 M solution of KCl in H2O.” for “injection.”
as §3, §5

Experiment [4] concerns the target KV10.1 (Homo sapiens, UniProt O95259). Briefly: Selectivity, HiClamp Xenopus laevis heterologous expression system, KV10.1. As to conditions: at a concentration of the compound's IC50 value for KV1.3. How it is done:
as §1, §2, §3

[5] abbreviates: HiClamp, oocytes, NA = no significant inhibition, no IC50 determined.
Setting [6] is: at a concentration of the compound's IC50 value for KV1.3.

Chain of KV1.4 (P22459 whole entry): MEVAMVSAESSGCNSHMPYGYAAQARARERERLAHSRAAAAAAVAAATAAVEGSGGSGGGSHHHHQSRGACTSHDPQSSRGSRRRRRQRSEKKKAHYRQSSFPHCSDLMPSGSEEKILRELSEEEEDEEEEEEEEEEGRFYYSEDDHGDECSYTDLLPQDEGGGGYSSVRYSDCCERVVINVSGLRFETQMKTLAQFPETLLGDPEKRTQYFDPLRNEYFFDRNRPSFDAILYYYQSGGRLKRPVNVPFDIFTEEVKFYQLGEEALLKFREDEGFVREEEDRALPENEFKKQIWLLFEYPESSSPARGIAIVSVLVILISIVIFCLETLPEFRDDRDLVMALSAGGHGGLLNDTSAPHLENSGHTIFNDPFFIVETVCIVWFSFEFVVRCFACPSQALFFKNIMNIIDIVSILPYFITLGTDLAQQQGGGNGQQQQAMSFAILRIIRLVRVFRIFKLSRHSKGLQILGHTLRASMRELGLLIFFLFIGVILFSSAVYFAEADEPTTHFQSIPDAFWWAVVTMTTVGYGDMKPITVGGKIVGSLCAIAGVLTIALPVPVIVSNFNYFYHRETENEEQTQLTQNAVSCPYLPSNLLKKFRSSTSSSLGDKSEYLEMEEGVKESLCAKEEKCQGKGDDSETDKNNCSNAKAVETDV
Chain of KV4.2 (Q9NZV8 whole entry): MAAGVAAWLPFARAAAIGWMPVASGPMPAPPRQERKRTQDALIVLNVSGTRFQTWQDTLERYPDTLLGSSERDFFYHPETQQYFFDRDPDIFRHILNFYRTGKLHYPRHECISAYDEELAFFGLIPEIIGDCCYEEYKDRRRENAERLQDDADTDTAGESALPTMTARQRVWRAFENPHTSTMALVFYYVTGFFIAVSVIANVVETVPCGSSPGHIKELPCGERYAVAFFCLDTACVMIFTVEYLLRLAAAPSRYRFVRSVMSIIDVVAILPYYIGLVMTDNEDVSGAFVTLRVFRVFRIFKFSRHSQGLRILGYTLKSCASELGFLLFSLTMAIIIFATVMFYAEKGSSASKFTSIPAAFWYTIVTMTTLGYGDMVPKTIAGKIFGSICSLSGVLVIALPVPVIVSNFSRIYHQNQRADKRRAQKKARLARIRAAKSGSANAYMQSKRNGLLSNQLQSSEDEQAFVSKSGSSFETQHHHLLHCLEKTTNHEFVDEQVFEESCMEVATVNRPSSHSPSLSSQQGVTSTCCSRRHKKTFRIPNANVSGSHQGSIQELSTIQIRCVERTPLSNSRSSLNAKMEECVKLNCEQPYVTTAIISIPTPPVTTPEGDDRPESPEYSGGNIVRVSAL
Chain of KV10.1 (O95259 whole entry): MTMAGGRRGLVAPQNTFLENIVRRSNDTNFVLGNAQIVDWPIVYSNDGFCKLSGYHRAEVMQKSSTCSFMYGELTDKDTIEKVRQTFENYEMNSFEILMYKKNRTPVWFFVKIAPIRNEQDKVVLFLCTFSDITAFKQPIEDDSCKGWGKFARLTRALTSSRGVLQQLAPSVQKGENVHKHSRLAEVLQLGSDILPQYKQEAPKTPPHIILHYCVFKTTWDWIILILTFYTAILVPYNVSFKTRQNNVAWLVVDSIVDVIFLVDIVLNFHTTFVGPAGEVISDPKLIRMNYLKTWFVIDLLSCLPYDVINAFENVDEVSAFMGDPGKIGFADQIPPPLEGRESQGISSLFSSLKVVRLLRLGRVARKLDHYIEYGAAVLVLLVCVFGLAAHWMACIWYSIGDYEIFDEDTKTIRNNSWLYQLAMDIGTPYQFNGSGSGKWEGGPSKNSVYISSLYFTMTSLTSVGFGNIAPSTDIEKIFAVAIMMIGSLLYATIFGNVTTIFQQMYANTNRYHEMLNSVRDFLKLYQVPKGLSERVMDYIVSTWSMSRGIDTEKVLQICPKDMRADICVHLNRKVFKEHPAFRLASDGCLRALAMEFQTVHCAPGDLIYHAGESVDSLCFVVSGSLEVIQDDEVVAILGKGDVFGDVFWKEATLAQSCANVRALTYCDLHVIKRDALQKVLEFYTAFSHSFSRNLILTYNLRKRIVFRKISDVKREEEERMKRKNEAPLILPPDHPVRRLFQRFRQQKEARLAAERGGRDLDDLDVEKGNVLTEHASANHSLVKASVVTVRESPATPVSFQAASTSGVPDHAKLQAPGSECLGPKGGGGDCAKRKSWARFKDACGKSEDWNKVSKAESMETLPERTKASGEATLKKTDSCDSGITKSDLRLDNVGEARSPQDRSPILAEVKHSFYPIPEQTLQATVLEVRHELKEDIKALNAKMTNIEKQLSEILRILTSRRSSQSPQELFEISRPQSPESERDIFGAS

Consider `COc1ccccc1C(=O)NCC1(c2cccs2)CCOC1` (stereo not drawn) [Compound 14], for which the IC50 (commonly the concentration that inhibits the measured activity by half) was 2.41 ± 0.88 µM in experiment [1] and 6.45 ± 0.42 µM in experiment [2] (setting [5]).
In the case of `COc1ccccc1C(=O)NCC1(c2ccsc2)CCOCC1` [Compound 44], in experiment [2] (setting [6]), the “Effect on KV2.1 channel” value is reported as “no significant effects”. This compound also gave an IC50 in experiment [3] (setting [5]) of 8.48 ± 2.21 µM. In addition, the “inhibition of KV1.4” value in experiment [3] (setting [6]) was about 16%. Further, the “Effect on KV10.1 channel” value in experiment [4] is “no significant effects”.
